Reference: ChEMBL document CHEMBL1201862, “PubChem BioAssay data set” (2004)
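All cell lines were grown in 96-well plates and treated with compound for 48 hours. GI50: concentration for 50% inhibition of growth.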 Calls of active or inactive are those of the source. No stated cut-off is given here; in the data, active = GI50 up to about 1.1 µM and inactive = higher.

Columns and labels:
Test in all cases: NCI anticancer screen, dose series, 48 h
[1] = tested on: 786-0
[2] = tested on: A549
[3] = tested on: UO-31
[4] = tested on: SN12C
[5] = tested on: OVCAR-8
[6] = tested on: HCT-116
[7] = tested on: KM12
[8] = tested on: COLO 205
[9] = tested on: NCI/ADR-RES
[10] = tested on: SNB-75
[11] = tested on: OVCAR-4
[12] = tested on: SK-OV-3
[13] = tested on: RPMI-8226
[14] = tested on: NCI-H226
[15] = tested on: SR
[16] = tested on: SK-MEL-28
[17] = tested on: CAKI-1
[18] = tested on: Hs-578T
[19] = tested on: HOP-92
[20] = tested on: T47D
[21] = tested on: Malme-3M
[22] = tested on: SK-MEL-2
[23] = tested on: EKVX
[24] = tested on: MDA-N
[25] = tested on: BT-549
[26] = tested on: MOLT-4
[27] = tested on: LOX IMVI
[28] = tested on: UACC-257
[29] = tested on: A498
[30] = tested on: UACC-62
[31] = tested on: NCI-H460
[32] = tested on: MDA-MB-435
[33] = tested on: HOP-62
[34] = tested on: SF-295
[35] = tested on: SF-268
[36] = tested on: U-251
[37] = tested on: K562
[38] = tested on: NCI-H23
[39] = tested on: OVCAR-5
[40] = tested on: TK-10
[41] = tested on: RXF 393
[42] = tested on: HCC 2998
[43] = tested on: SW-620
[44] = tested on: SF-539
[45] = tested on: MCF7
[46] = tested on: M14
[47] = tested on: SK-MEL-5
[48] = tested on: MDA-MB-231
[49] = tested on: HT-29
[50] = tested on: ACHN
[51] = tested on: PC-3
[52] = tested on: IGROV-1
[53] = tested on: HCT-15
[54] = tested on: SNB-19
[55] = tested on: NCI-H522
[56] = tested on: OVCAR-3
[57] = tested on: DU-145
[58] = tested on: HL-60
[59] = tested on: CCRF-CEM

For `CC[C@H](C)[C@H](NC(=O)[C@H](Cc1ccc(O)cc1)NCC(F)(F)F)C(=O)OC(C)(C)C`, the GI50 [1] was 8.15 µM (inactive), the GI50 [2] was 5.41 µM (inactive) and the GI50 [3] was 7.64 µM (inactive). The GI50 [4] was 8.81 µM (inactive), the GI50 [5] was 12.4 µM (inactive) and the GI50 [6] was 7.18 µM (inactive). For the same molecule, the GI50 [7] was 7.78 µM (inactive), the GI50 [8] was 8.05 µM (inactive) and the GI50 [9] was 11.7 µM (inactive). The GI50 [10] was 7.89 µM (inactive), the GI50 [11] was 5.64 µM (inactive) and the GI50 [12] was 8.11 µM (inactive). The GI50 [13] was 6.64 µM (inactive), the GI50 [14] was 9.06 µM (inactive) and the GI50 [15] was 5.97 µM (inactive). For the same molecule, the GI50 [16] was 9.38 µM (inactive), the GI50 [17] was 7.01 µM (inactive) and the GI50 [18] was 10.3 µM (inactive). The GI50 [19] was 8.99 µM (inactive), the GI50 [20] was 4.51 µM (inactive) and the GI50 [21] was 10.2 µM (inactive). For the same molecule, the GI50 [22] was 6.53 µM (inactive), the GI50 [23] was 6.87 µM (inactive) and the GI50 [24] was 8.32 µM (inactive). The GI50 [25] was 10.8 µM (inactive), the GI50 [26] was 6.35 µM (inactive) and the GI50 [27] was 8.67 µM (inactive). For the same molecule, the GI50 [28] was 6.82 µM (inactive), the GI50 [29] was 7.31 µM (inactive) and the GI50 [30] was 5.69 µM (inactive). For the same molecule, the GI50 [31] was 6.22 µM (inactive), the GI50 [32] was 7 µM (inactive) and the GI50 [33] was 9.25 µM (inactive). The GI50 [34] was 6.9 µM (inactive), the GI50 [35] was 9.71 µM (inactive) and the GI50 [36] was 6.85 µM (inactive). For the same molecule, the GI50 [37] was 8.61 µM (inactive), the GI50 [38] was 8.59 µM (inactive) and the GI50 [39] was 8.63 µM (inactive). For the same molecule, the GI50 [40] was 8.09 µM (inactive), the GI50 [41] was 7.16 µM (inactive) and the GI50 [42] was 7.29 µM (inactive). The GI50 [43] was 9.82 µM (inactive), the GI50 [44] was 9.71 µM (inactive) and the GI50 [45] was 7.74 µM (inactive). For the same molecule, the GI50 [46] was 7.03 µM (inactive), the GI50 [47] was 7.41 µM (inactive) and the GI50 [48] was 7.28 µM (inactive). The GI50 [49] was 7.6 µM (inactive), the GI50 [50] was 7.33 µM (inactive) and the GI50 [51] was 6.43 µM (inactive). For the same molecule, the GI50 [52] was 7.5 µM (inactive), the GI50 [53] was 10.5 µM and the GI50 [54] was 7.96 µM (inactive). For the same molecule, the GI50 [55] was 7.31 µM (inactive).

With `COc1cc(CNc2nc3cc(C(F)(F)F)ccc3nc2C(=O)O)cc(OC)c1OC` the GI50 [1] was 19.3 µM (inactive), the GI50 [2] was 21.4 µM (inactive) and the GI50 [3] was 18.6 µM (inactive). The GI50 [4] was 15.4 µM (inactive), the GI50 [5] was 34.4 µM (inactive) and the GI50 [6] was 15.6 µM (inactive). For the same molecule, the GI50 [7] was 24.7 µM (inactive), the GI50 [8] was 22.6 µM (inactive) and the GI50 [9] was 24.4 µM (inactive). The GI50 [10] was 19.9 µM (inactive), the GI50 [12] was 28.4 µM (inactive) and the GI50 [14] was 60.7 µM (inactive). The GI50 [15] was 33.3 µM (inactive), the GI50 [16] was 22.5 µM (inactive) and the GI50 [56] was 24.3 µM (inactive). The GI50 [17] was 25.3 µM (inactive), the GI50 [18] was 10.4 µM (inactive) and the GI50 [20] was 21.1 µM (inactive). For the same molecule, the GI50 [21] was 38.6 µM (inactive), the GI50 [57] was 33.2 µM (inactive) and the GI50 [22] was 19.9 µM (inactive). The GI50 [23] was 20.1 µM (inactive), the GI50 [24] was 21.5 µM (inactive) and the GI50 [25] was 29.8 µM (inactive). The GI50 [26] was 20.7 µM (inactive), the GI50 [27] was 31.4 µM (inactive) and the GI50 [28] was 21.5 µM (inactive). For the same molecule, the GI50 [29] was 24.2 µM (inactive), the GI50 [30] was 15.5 µM (inactive) and the GI50 [31] was 25.4 µM (inactive). For the same molecule, the GI50 [32] was 23.4 µM (inactive), the GI50 [58] was 0.1 µM (active) and the GI50 [33] was 18.5 µM (inactive). For the same molecule, the GI50 [34] was 20.5 µM (inactive), the GI50 [35] was 27.7 µM (inactive) and the GI50 [36] was 15.7 µM (inactive). For the same molecule, the GI50 [37] was 28 µM (inactive), the GI50 [38] was 33.8 µM (inactive) and the GI50 [39] was 49.3 µM (inactive). The GI50 [40] was 13.1 µM (inactive), the GI50 [41] was 23.8 µM (inactive) and the GI50 [42] was 41.4 µM (inactive). The GI50 [43] was 31.6 µM (inactive), the GI50 [44] was 15.2 µM (inactive) and the GI50 [45] was 20.1 µM (inactive). The GI50 [46] was 17.5 µM (inactive), the GI50 [50] was 26.4 µM (inactive) and the GI50 [51] was 21.5 µM (inactive). For the same molecule, the GI50 [53] was 29.6 µM, the GI50 [54] was 21.6 µM (inactive) and the GI50 [55] was 29.2 µM (inactive).

`COC(=O)[C@H](Cc1c[nH]c2ccccc12)NP(=O)(O)OCC1C=CC(n2cc(C)c(=O)[nH]c2=O)O1` (some centres undefined) was tested, and the GI50 [1] was > 100 µM (inactive), the GI50 [4] was > 100 µM (inactive) and the GI50 [5] was > 100 µM (inactive). The GI50 [6] was > 100 µM (inactive), the GI50 [7] was > 100 µM (inactive) and the GI50 [8] was > 100 µM (inactive). The GI50 [9] was > 100 µM (inactive), the GI50 [10] was > 100 µM (inactive) and the GI50 [11] was > 100 µM (inactive). The GI50 [13] was > 100 µM (inactive), the GI50 [14] was > 100 µM (inactive) and the GI50 [16] was > 100 µM (inactive). The GI50 [56] was > 100 µM (inactive), the GI50 [17] was > 100 µM (inactive) and the GI50 [18] was > 100 µM (inactive). The GI50 [19] was > 100 µM (inactive), the GI50 [20] was > 100 µM (inactive) and the GI50 [57] was > 100 µM (inactive). The GI50 [22] was > 100 µM (inactive), the GI50 [23] was > 100 µM (inactive) and the GI50 [24] was > 100 µM (inactive). For the same molecule, the GI50 [25] was > 100 µM (inactive), the GI50 [26] was > 100 µM (inactive) and the GI50 [27] was > 100 µM (inactive). The GI50 [29] was > 100 µM (inactive), the GI50 [30] was > 100 µM (inactive) and the GI50 [32] was > 100 µM (inactive). For the same molecule, the GI50 [58] was > 100 µM (inactive), the GI50 [33] was > 100 µM (inactive) and the GI50 [35] was > 100 µM (inactive). For the same molecule, the GI50 [36] was > 100 µM (inactive), the GI50 [37] was > 100 µM (inactive) and the GI50 [38] was > 100 µM (inactive). For the same molecule, the GI50 [42] was > 100 µM (inactive), the GI50 [43] was > 100 µM (inactive) and the GI50 [47] was > 100 µM (inactive). For the same molecule, the GI50 [48] was > 100 µM (inactive), the GI50 [49] was > 100 µM (inactive) and the GI50 [51] was > 100 µM (inactive). For the same molecule, the GI50 [52] was > 100 µM (inactive), the GI50 [59] was > 100 µM (inactive) and the GI50 [53] was greater than 100 µM. For the same molecule, the GI50 [54] was > 100 µM (inactive).
